This note sets out measurements from patent US9498483B2, “2,3,5-trisubstituted thiophene compounds and uses thereof” (priority 2010, dated 2016).

Test [1] addresses T1, HCV polymerase (Hepatitis C virus genotype 1b, UniProt Q9WMX2).
T1 construct: (His)6 (C); made in house; host or cells: XL-1 cells (E. coli, by own knowledge)
Description: Polymerase assay of Biological Example 1 (IC50 values of Table 3). It counts as biochemical. The note with it: IC50 values of Table 3, polymerase assay of Biological Example 1; read-out: NS5B-enzyme3. An excerpt:
A number of assays have been published to assess these activities. A general method that assesses the gross increase of HCV virus in culture was disclosed in U.S. Pat. No. 5,738,985 to Miles et al. In vitro assays have been reported in Ferrari et al. Jnl. of Vir., 73:1649-1654, 1999; Ishii et al., Hepatology, 29:1227-1235, 1999; Lohmann et al., Jnl of Bio. Chem., 274:10807-10815, 1999; and Yamashita et al., Jnl. of Bio. Chem., 273:15479-15486, 1998.
WO 97/12033, filed on Sep. 27, 1996, by Emory University, listing C. Hagedorn and A. Reinoldus as inventors, which claims priority to U.S. Provisional Patent Application Ser. No. 60/004,383, filed on September 1995, described an HCV polymerase assay that can be used to evaluate the activity of the of the compounds described herein. Another HCV polymerase assay has been reported by Bartholomeusz, et al., Hepatitis C Virus (HCV) RNA polymerase assay using cloned HCV non-structural proteins; Antiviral Therapy 1996:1 (Supp 4) 18-24.

Test [2] deals with HCV replicon I389luc-ubi-neo/NS3-3′/ET in ET (Huh-lucubineo-ET) cells. Description: Replicon assay (Biological Example 2), luciferase readout. The settings on record: Hepatitis C virus. The class given is cell-based. As for the experimental part:
A cell line, ET (Huh-lucubineo-ET) was used for screening of compounds for inhibiting HCV RNA dependent RNA polymerase. The ET cell line was stably transfected with RNA transcripts harboring a I389luc-ubi-neo/NS3-3′/ET; replicon with firefly luciferase-ubiquitin-neomycin phosphotransferase fusion protein and EMCV-IRES driven NS3-5B polyprotein containing the cell culture adaptive mutations (E1202G; T12801; K1846T) (Krieger at al, 2001 and unpublished). The ET cells were grown in DMEM (Dulbeco's Modified Eagle's Medium), supplemented with 10% fetal calf serum, 2 mM Glutamine, Penicillin (100 IU/mL)/Streptomycin (100 μg/mL), 1× nonessential amino acids, and 250 μg/mL G418 (“Geneticin”). Reagents were all available through Life Technologies (Bethesda, Md.). The cells were plated at 0.5-1.0×10^4 cells/well in the 96 well plates and incubated for 24 hrs before adding test compound. The compounds were added to the cells to achieve a final concentration of 0.1 nM to 50 μM and a final DMSO (dimethylsulfoxide) concentration of 0.5%. Luciferase activity was measured 48 hours later by adding a lysis buffer and the substrate (Catalog number Glo-lysis buffer E2661 and Bright-Glo luciferase system E2620 Promega, Madison, Wis.). Cells should not be too confluent during the assay. Percent inhibition of replication data was plotted relative to no compound control. To determine the EC50 (effective concentration at which 50% of the maximum inhibition was observed), a 10 point, 3-fold serial dilution for each compound was used, which spans a concentration range of […]. EC50 values were calculated by fitting % inhibition at each concentration to the following equation: % inhibition=100%/[(EC50/[I])^b+1] where b was Hill's coefficient.
In other aspects the EC50 was equal to or less than 10 μM. In still other aspects the EC50 was equal to or less than 1 μM.
Background: A replicon is a self-replicating genome or part of one, used to study replication in cells.

The mark [3] stands for this setting: ET cells, luciferase activity 48 hours after compound.

In the case of `Cc1ccc(-c2cc(N3C(=O)CN(S(=O)(=O)c4cn(C)c(C)n4)C[C@H]3C3CCCCC3)c(C(=O)O)s2)cc1` [Compound 298, 3-[(R)-2-Cyclohexyl-4-(1,2-dimethyl-1H-imidazole-4-sulfonyl)-6-oxo-piperazin-1-yl]-5-p-tolyl-thiophene-2-carboxylic acid], the IC50 in test [1] is 1 nM; in test [2] (setting [3]) it was no more than 100 nM.

For `N[C@H]1CC(=O)N(c2cc(-c3ccccc3)sc2C(=O)O)[C@@H](C2CCCCC2)C1` [Compound 23, 3-((2R,4R)-4-Amino-2-cyclohexyl-6-oxo-piperidin-1-yl)-5-phenyl-thiophene-2-carboxylic acid], the values for the IC50 in test [1] and in test [2] (setting [3]) were 245 nM and no less than 5000 nM, respectively.

For `CC(C)(C)C#Cc1cc(N2C(=O)[C@@](C)(CCO)OC[C@H]2C2CCCCC2)c(C(=O)O)s1` [Compound 323, 3-[(2R,5R)-5-Cyclohexyl-2-(2-hydroxy-ethyl)-2-methyl-3-oxo-morpholin-4-yl]-5-(3,3-dimethyl-but-1-ynyl)-thiophene-2-carboxylic acid], the values for the IC50 in test [1] and in test [2] (setting [3]) were 3 nM and no more than 100 nM, respectively.

Take `C[C@@H]1CCCN1c1ccc(S(=O)(=O)N2CC(=O)N(c3cc(-c4ccc(Cl)cc4)sc3C(=O)O)[C@H](C3CCCCC3)C2)cc1` [Compound 234, 5-(4-Chloro-phenyl)-3-{(R)-2-cyclohexyl-4-[4-((R)-2-methyl-pyrrolidin-1-yl)-benzenesulfonyl]-6-oxo-piperazin-1-yl}-thiophene-2-carboxylic acid]: the IC50 was 1 nM in test [1] and no more than 100 nM in test [2] (setting [3]).

Turning to `O=C(O)c1sc(-c2ccc(F)cc2)cc1N1C(=O)CN(S(=O)(=O)c2ccc(N3CCOCC3)nc2)C[C@H]1C1CCCCC1` [Compound 189, 3-[(R)-2-Cyclohexyl-4-(6-morpholin-4-yl-pyridine-3-sulfonyl)-6-oxo-piperazin-1-yl]-5-(4-fluoro-phenyl)-thiophene-2-carboxylic acid], the IC50 in test [1] is 1 nM; in test [2] (setting [3]), no more than 100 nM.

For `CC(C)N1CCN(c2ccc(S(=O)(=O)N3CC(=O)N(c4cc(-c5ccccc5)sc4C(=O)O)[C@H](C4CCCCC4)C3)cn2)CC1` [Compound 160, 3-{(R)-2-Cyclohexyl-4-[6-(4-isopropyl-piperazin-1-yl)-pyridine-3-sulfonyl]-6-oxo-piperazin-1-yl}-5-phenyl-thiophene-2-carboxylic acid], the IC50 is 1 nM in test [1] and no more than 100 nM in test [2] (setting [3]).

For `N#Cc1ccc(-c2cc(N3C(=O)CCCC3C3CCCCC3)c(C(=O)O)s2)cc1` (centres unmarked) [Compound 129, 5-(4-Cyano-phenyl)-3-(2-cyclohexyl-6-oxo-piperidin-1-yl)-thiophene-2-carboxylic acid], the IC50 is 96 nM in test [1]; 100 to 5000 nM in test [2] (between 100 nM and 5.0 uM).

Consider `O=C(O)c1sc(-c2cccc(F)c2)cc1N1C(=O)CCCC1C1CCCCC1` (centres unmarked) [Compound 48, 3-(2-Cyclohexyl-6-oxo-piperidin-1-yl)-5-(3-fluoro-phenyl)-thiophene-2-carboxylic acid], for which the IC50 in test [1] was 187 nM; in test [2] (between 100 nM and 5.0 uM) it was 100 to 5000 nM.

Consider `COCCNCC1OC[C@@H](C2CCCCC2)N(c2cc(C#CC(C)(C)C)sc2C(=O)O)C1=O` (stereo partly drawn) [Compound 307, 3-{(R)-5-Cyclohexyl-2-[(2-methoxy-ethylamino)-methyl]-3-oxo-morpholin-4-yl}-5-(3,3-dimethyl-but-1-ynyl)-thiophene-2-carboxylic acid], for which the IC50 is 6 nM in test [1] and no more than 100 nM in test [2] (setting [3]).

As to `CN(C)C1CCN(c2ccc(S(=O)(=O)N3CC(=O)N(c4cc(-c5ccccc5)sc4C(=O)O)[C@H](C4CCCCC4)C3)cn2)CC1` [Compound 147, 3-[(R)-2-Cyclohexyl-4-(4-dimethylamino-3,4,5,6-tetrahydro-2H-[1,2′]bipyridinyl-5′-sulfonyl)-6-oxo-piperazin-1-yl]-5-phenyl-thiophene-2-carboxylic acid], the IC50 is 1 nM in test [1] and no more than 100 nM in test [2] (setting [3]).

In the case of `CC(C)(C)OC(=O)N[C@H]1CCN(c2ccc(S(=O)(=O)N3CC(=O)N(c4cc(-c5ccccc5)sc4C(=O)O)[C@H](C4CCCCC4)C3)cn2)C1` [Compound 165, 3-{(R)-4-[6-((S)-3-tert-Butoxycarbonylamino-pyrrolidin-1-yl)-pyridine-3-sulfonyl]-2-cyclohexyl-6-oxo-piperazin-1-yl}-5-phenyl-thiophene-2-carboxylic acid], the IC50 in test [1] was 2 nM; in test [2] (setting [3]) it was no more than 100 nM.

`CC(C)(C)C#Cc1cc(N2C(=O)C3(CCOCC3)OC[C@H]2C2CCCCC2)c(C(=O)O)s1` [Compound 325, 3-((R)-3-Cyclohexyl-5-oxo-1,9-dioxa-4-aza-spiro[5.5]undec-4-yl)-5-(3,3-dimethyl-but-1-ynyl)-thiophene-2-carboxylic acid]: the IC50 is 6 nM in test [1] and no more than 100 nM in test [2] (setting [3]).

In the case of `O=C(O)c1sc(-c2ccccc2)cc1N1C(=O)CN(S(=O)(=O)c2ccc(F)cc2)CC1C1CCCCC1` (centres unmarked) [Compound 109, 3-[2-Cyclohexyl-4-(4-fluoro-benzenesulfonyl)-6-oxo-piperazin-1-yl]-5-phenyl-thiophene-2-carboxylic acid], the IC50 in test [1] is 30 nM; in test [2] (between 100 nM and 5.0 uM), 100 to 5000 nM.

In the case of `COc1ccc(S(=O)(=O)N2CC(=O)N(c3cc(C#CC(C)(C)C)sc3C(=O)O)[C@H](C3CCCCC3)C2)cn1` [Compound 191, 3-[(R)-2-Cyclohexyl-4-(6-methoxy-pyridine-3-sulfonyl)-6-oxo-piperazin-1-yl]-5-(3,3-dimethyl-but-1-ynyl)-thiophene-2-carboxylic acid], the IC50 in test [1] is 1 nM; in test [2] (setting [3]), no more than 100 nM.

Take `O=C(O)c1sc(-c2ccccc2)cc1N1C(=O)CN(S(=O)(=O)c2ccc(N3CCOCC3)nc2)C[C@H]1C1CCCCC1` [Compound 184, 3-[(R)-2-Cyclohexyl-4-(6-morpholin-4-yl-pyridine-3-sulfonyl)-6-oxo-piperazin-1-yl]-5-phenyl-thiophene-2-carboxylic acid]: the IC50 in test [1] is 1.7 nM; in test [2] (setting [3]), no more than 100 nM.

Regarding `CCC(C)S(=O)(=O)N1CC(=O)N(c2cc(-c3ccccc3)sc2C(=O)O)C(C2CCCCC2)C1` (centres unmarked) [Compound 45, 3-[4-(Butane-2-sulfonyl)-2-cyclohexyl-6-oxo-piperazin-1-yl]-5-phenyl-thiophene-2-carboxylic acid], the IC50 was 4900 nM in test [1]; 100 to 5000 nM in test [2] (between 100 nM and 5.0 uM).

Turning to `O=C(O)c1sc(-c2ccccc2)cc1N1C(=O)CN(S(=O)(=O)c2ccc(C(F)(F)F)cc2)CC1C1CCCCC1` (centres unmarked) [Compound 54, 3-[2-Cyclohexyl-6-oxo-4-(4-trifluoromethyl-benzenesulfonyl)-piperazin-1-yl]-5-phenyl-thiophene-2-carboxylic acid], the IC50 in test [1] was 18 nM; in test [2] (between 100 nM and 5.0 uM), 100 to 5000 nM.

For the compound `C[C@@H]1CN(c2ccc(S(=O)(=O)N3CC(=O)N(c4cc(-c5ccc(F)cc5)sc4C(=O)O)[C@H](C4CCCCC4)C3)cn2)C[C@H](C)O1` [Compound 278, 3-{(R)-2-Cyclohexyl-4-[6-((2R,6S)-2,6-dimethyl-morpholin-4-yl)-pyridine-3-sulfonyl]-6-oxo-piperazin-1-yl}-5-(4-fluoro-phenyl)-thiophene-2-carboxylic acid], the IC50 in test [1] is 1 nM; in test [2] (setting [3]), no more than 100 nM.

Turning to `CC(C)(C)OC(=O)NCC1CCN(c2ccc(S(=O)(=O)N3CC(=O)N(c4cc(-c5ccccc5)sc4C(=O)O)[C@H](C4CCCCC4)C3)cn2)CC1` [Compound 149, 3-{(R)-4-[4-(tert-Butoxycarbonyl-amino-methyl)-3,4,5,6-tetrahydro-2H-[1,2′]bipyridinyl-5′-sulfonyl]-2-cyclohexyl-6-oxo-piperazin-1-yl}-5-phenyl-thiophene-2-carboxylic acid], the IC50 in test [1] is 3 nM; in test [2] (setting [3]) it was no more than 100 nM.
